Measured values reported in patent US9161935B2 (TEVA PHARMACEUTICAL INDUSTRIES, LTD., priority 2012, dated 2015).

Key:
[1] = system: Moderate to Severe Crohn's Disease Patients; test: Phase III 52-week maintenance of remission study LAQ-CD-303 (Example 4); type: in vivo, human
Protocol: A phase III, randomized, double-blind, placebo-controlled 52-week maintenance of remission study is conducted in active moderate to severe Crohn's disease patients.
Subjects with a Response during the 8-week induction studies LAQ-CD-202, LAQ-CD-301, or LAQ-CD-302 are re-randomized into this placebo-controlled maintenance study. Response in those induction studies was defined as a Crohn's Disease Activity Index (CDAI) reduction of at least 70 points from Baseline and CDAI <220 at Week 8 of the induction study in the absence of treatment failure (TF); in particular, this included subjects in Remission. In those 3 induction studies, TF was defined as follows: any new medication/treatment (including surgery) for Crohn's disease (CD) or dose increase not allowed by the protocol, throughout the study period; any early termination from the study was also regarded as TF. No de novo subjects are included in this study.
Remission: Subjects with CDAI <150 with no Treatment Failure (TF) during the course of the study.
Steroid Free Remission: Subjects achieving both Remission and steroid free.
IBDQ Response: An increase from baseline in total IBDQ score of ≧16 points.
IBDQ Remission: A total IBDQ score of >170 points.
Treatment duration is 52 weeks. Scheduled in-clinic visits are conducted at Baseline (Week 0), and at Weeks 2, 4, 8, 12, 16, 20, 28, 36, 44, and 52. The Week 0 visit for this maintenance study is the same as the Week 8 visit in the induction study. Unscheduled visits for safety or for any other reason may be conducted at any time during the study.
Primary Efficacy Endpoint: • The primary endpoint is evaluated for subjects who belong to the PEC. • The proportion of subjects in Remission at Week 52.
Secondary Efficacy Endpoints: • The secondary endpoints are evaluated for subjects who belong to the PEC. • The proportion of subjects in Sustained Remission (defined as Remission at Week 36 and Week 52). • The proportion of subjects with Steroid-free Remission at Week 52. • Mean change in total IBDQ score from Baseline to Week 52. • Proportion of subjects with an IBDQ Response at Week 52. • Proportion of subjects with IBDQ Remission at Week 52.

[2] = system: Moderate to severe Crohn's disease (CD) subjects; test: Phase IIa trial CD-LAQ-201: clinical effect (CDAI remission, response); type: in vivo, human; conditions: for effects on remission and response 100: week 8
Protocol: Overall up to ˜180 Crohn's disease patients are enrolled.
The capsules were prepared using a blend proportional to the 0.6 mg capsules described in PCT International Application No. PCT/US2007/013721 (WO 2007/146248). The capsules were prepared according to the method described in PCT International Application No. PCT/US2007/013721 (WO 2007/146248), which is hereby incorporated by reference into this application.
A loading dose regimen of double the maintenance/intended dose was given during the first two days of study drug treatment. Thereafter, starting on day 3, the daily maintenance/intended dose was administered.
Subjects are required to maintain CDAI diary cards for each day of the screening period and, if randomized, on each day of the treatment and follow-up period. The scores obtained from the seven consecutive diaries completed prior to the baseline visit and to each of weeks 1, 2, 4, 6, 8 and 12 contribute to a total CDAI score at each of the time points.
Moderate to severe Crohn's disease (CD) subjects as determined by a Crohn's Disease Activity Index (CDAI) score of 220-450 (inclusive).
Each dose was studied sequentially in a distinct cohort.
Scheduled in-clinic visits were conducted at screening, baseline and at weeks 1, 2, 4, 6 and 8. […] Subjects who early-discontinues study drug prior to visit week 8 go to follow-up termination visit within 4 weeks (28 days) of study drug discontinuation.
The study exploratory efficacy outcome measures were chosen according to the draft EMEA guidelines for the treatment of active Crohn's disease/induction of remission (EMEA, 2007) • 1. Proportion of subjects in clinical remission (total CDAI score <150) at weeks 4, 6, 8 and 12 (and were not treatment failures). • 2. Proportion of subjects who respond to treatment (decrease from baseline of at least 100 points in CDAI score ore remission) at week 4, 6, 8 and 12. • 3. Time to remission. • 4. Time to response. • 5. C-Reactive Protein (CRP) change from baseline at weeks 2, 4, 6, 8 and 12. • 6. Fecal calprotectin change from baseline to weeks 2, 4, 6, 8 and 12. • 7. Proportion of subjects with a decrease from baseline of at least 50% in the number of open draining fistulas.

For CCN(C(=O)c1c(O)c2c(Cl)cccc2n(C)c1=O)c1ccccc1 [laquinimod], the “improve and/or maintain IBDQ score by Week 52” value ([1]; 0.25 mg/day) was “effective”, the “induce and/or maintain IBDQ Remission by Week 52” value ([1]; 0.25 mg/day) was “effective” and the “induce and/or maintain IBDQ Response by Week 52” value ([1]; 0.25 mg/day) was “effective”. For the same compound, the “induce and/or maintain Remission by Week 52” value ([1]; 0.25 mg/day) was “effective”, the “induce and/or maintain steroid-free Remission by Week 52” value ([1]; 0.25 mg/day) was “effective” and the “sustain Remission (Remission at Week 36 and Week 52)” value ([1]; 0.25 mg/day) was “effective”. For the same compound, the “improve and/or maintain IBDQ score by Week 52” value ([1]; 0.5 mg/day) was “effective”, the “induce and/or maintain IBDQ Remission by Week 52” value ([1]; 0.5 mg/day) was “effective” and the “induce and/or maintain IBDQ Response by Week 52” value ([1]; 0.5 mg/day) was “effective”. For the same compound, the “induce and/or maintain Remission by Week 52” value ([1]; 0.5 mg/day) was “effective”, the “induce and/or maintain steroid-free Remission by Week 52” value ([1]; 0.5 mg/day) was “effective” and the “sustain Remission (Remission at Week 36 and Week 52)” value ([1]; 0.5 mg/day) was “effective”. For the same compound, the “effects on remission and response 100” value ([2]; 0.5 mg/day) was “effects on remission and response 100 were observed”, the “effects on remission and response 100” value ([2]; 1 mg/day) was “lower magnitude effects” and the “effects on remission and response (conclusion)” value ([2]; 0.5 and 1 mg doses) was “clinically relevant effects”. The “time at which clinical remission was achieved” value ([2]; laquinimod 0.5 mg/day group) was no less than 2 week, the “time at which response 100 was achieved” value ([2]; laquinimod 0.5 mg/day group) was 7 days and the “time to clinical remission and response 100 versus pooled placebo” value ([2]; laquinimod 0.5 mg/day group) was “earlier than patients in the pooled placebo group”.
